Key:
[1] = Pharmacokinetics of four compounds in plasma after oral administration of GSBXD and its plus-minus prescriptions in normal rats (LC-MS/MS); format: in vivo; conditions: Wistar, rat
Experimental: Plasma samples (200 μL) and IS solution (50 μL, 1215 ng/mL for diphenhydramine, 476 ng/mL for chloromycetin) were added in an Eppendorf tube, and this mixture was extracted with methanol (550 μL) by shaking on a vortex-mixer for 2 min, and centrifuged for 10 min at 13,000 rpm. The contents were evaporated to dryness on a rotary evaporator at 37 °C. The residue was reconstituted in methanol (100 μL) and centrifuged (13,000 rpm for 10 min). The supernatant was transferred to an auto sample vail and an aliquot of 5 μL was injected onto the UPLC-MS/MS system for analysis.
The developed and validated method was applied to the pharmacokinetic evaluation of the four compounds after oral administration of different fractions to normal rats (Figure 3).
Raw materials of Glycyrrhiza uralensis Fisch (Gancao), Paeonia lactiflora Pall (Baishao), Pinellia ternata Breit (Banxia) in a weight ratio of 10:15:9 (50, 75 and 45 g) were crushed into small pieces. The mixture was refluxed with 1.7 L water for 1 h and with 1.36 L water for 1 h. The filtrates were combined and concentrated below 70 °C to obtain a certain volume at the ratio of 1.5:1 (w/w, weight of all constituting herbs and the extract filtrates) under vacuum. Powder of Euphorbia kansui T. N. Liou ex T. P. Wang. […] The same method was used to prepare GSBXD minus Gancao (GSBXD-GC); GSBXD minus Gansui (GSBXD-GS); GSBXD minus Gancao and Gansui (GSBXD-GG); the extract of Gancao and Gansui (GG) and the extract of Gancao (GC). The extracts contained 19.21, 18.73, 46.53, 15.82 μg/mL of compounds 1–4 in GSBXD; 0, 0, 51.03, 17.88 μg/mL of compounds 1–4 in GSBXD-GC; 19.21, 18.73, 46.53, 15.82 μg/mL of compounds 1–4 in GSBXD-GS; 0, 0, 51.03, 17.88 μg/mL of compounds 1–4 in GSBXD-GG; 20.03, 17.09, 0, 0 μg/mL of compounds 1–4 in GG, 20.03, 17.09, 0, 0 μg/mL of compounds 1–4 in GC.
For pharmacokinetic studies, Wistar rats were divided into ten groups (n = 6 per group). Rats in the normal and model GSBXD groups were administered GSBXD at a dose of 15 mL/kg intragastrically. In the normal and model GSBXD-GC groups, GSBXD-GC (12 mL/kg) was administrated. In the normal and model GSBXD-GS groups, GSBXD-GS (15 mL/kg) was administrated. In the normal and model GSBXD-GC-GS groups, GSBXD-GC-GS (12 mL/kg) was administrated. In the normal and model GG groups, GG (7.5 mL/kg) was administrated. Blood samples were collected at specific time points before (0 min) and after oral administration (5, 10, 20, 40, 60, 120, 240, 360, 480, 600 and 1440 min). A total of 720 blood samples were collected. All the blood samples were immediately centrifuged at 2500 rpm for 10 min to obtain plasma, which was labeled and frozen at −80 °C until analysis. Blank plasma was obtained from the rats without oral administration and was used to investigate the assay development and validation.
To determine the pharmacokinetic parameters of compounds 1–4 in different groups, concentration–time data were analyzed by DAS 3.2 software (Mathematical Pharmacology Professional Committee of China, Shanghai, China, 2011). Data were expressed as the mean […] standard deviation (S.D.) with triplicate measurements. The identification of significances between different groups was carried out with Student’s t-test. A P value < 0.05 was considered statistically significant.

[2] = Stability of the four compounds in rat plasma QC samples (freeze-thaw, storage at −80 °C, autosampler); format: physicochemical; conditions: for Stability, Autosampler for 24 h, Accuracy: processed rat plasma, auto-sampler 4 °C for 24 h; for Stability, Freeze-thaw cycles, Accuracy / Stability, At −80 °C for a Month, Accuracy: rat plasma; for Stability, Freeze-thaw cycles, Accuracy: three freeze-thaw cycles −80 °C to 20 °C
Experimental: Stability of the four analytes during the sample storing and processing procedures was fully evaluated by analysis of QC samples.
Three QC samples (five samples for each) were tested for pre-treatment, post-treatment, three freeze-thaw cycles and long-term stabilities. Pre-treatment stability was assessed by exposing QC samples at room temperature for 4 h. Post-treatment stability was evaluated by placing QC samples in the auto-sampler at 4 °C for 24 h. For freeze–thaw cycle stability assessment, QC samples were repeatedly frozen and thawed for three cycles from −80 °C to 20 °C. […]

[3] = 7.5 mL/kg, group GG (extract of Gancao and Gansui), 7.5 mL/kg oral, normal rats, n = 6, mean ± S.D.
[4] = 15 mL/kg, group GSBXD, 15 mL/kg intragastrically, normal rats, n = 6, mean ± S.D.
[5] = 15 mL/kg, group GSBXD-GS (GSBXD minus Gansui), 15 mL/kg oral, normal rats, n = 6, mean ± S.D.
[6] = group GC (extract of Gancao), oral, normal rats, n = 6, mean ± S.D.
[7] = high QC concentration (1.23 × 10^3, 1.11 × 10^3, 1.14 × 10^3, 1.42 × 10^3 ng/mL for 1–4)
[8] = low QC concentration (1.91 × 10, 4.32, 1.78 × 10, 1.11 × 10 ng/mL for 1–4)
[9] = middle QC concentration (3.09 × 10^2, 1.38 × 10^2, 1.43 × 10^2, 1.77 × 10^2 ng/mL for 1–4)
[10] = 12 mL/kg, group GSBXD-GC (GSBXD minus Gancao), 12 mL/kg oral, normal rats, n = 6, mean ± S.D.
[11] = 12 mL/kg, group GSBXD-GG (GSBXD minus Gancao and Gansui), 12 mL/kg oral, normal rats, n = 6, mean ± S.D.

| Compound | AUC(0-t) [1, 3] | Cmax [1, 3] | Tmax [1, 3] | AUC(0-t) [1, 4] | Cmax [1, 4] | Tmax [1, 4] | half-life [1, 4] | AUC(0-t) [1, 5] | Cmax [1, 5] | Tmax [1, 5] | half-life [1, 5] | Stability, Autosampler for 24 h, Accuracy [2, 7] | Stability, Autosampler for 24 h, Accuracy [2, 8] | Stability, Autosampler for 24 h, Accuracy [2, 9] | Stability, Freeze-thaw cycles, Accuracy [2, 7] | Stability, Freeze-thaw cycles, Accuracy [2, 8] | Stability, Freeze-thaw cycles, Accuracy [2, 9] | Stability, At −80 °C for a Month, Accuracy [2, 7] | Stability, At −80 °C for a Month, Accuracy [2, 8] | Stability, At −80 °C for a Month, Accuracy [2, 9] | other results |
| --- | --- | --- | --- | --- | --- | --- | --- | --- | --- | --- | --- | --- | --- | --- | --- | --- | --- | --- | --- | --- | --- |
| CC1(C)[C@@H](O[C@H]2O[C@H](C(=O)O)[C@@H](O)[C@H](O)[C@H]2O[C@@H]2O[C@H](C(=O)O)[C@@H](O)[C@H](O)[C@H]2O)CC[C@]2(C)[C@H]3C(=O)C=C4[C@@H]5C[C@@](C)(C(=O)O)CC[C@]5(C)CC[C@@]4(C)[C@]3(C)CC[C@@H]12 [Compound 1, glycyrrhizinic acid] | 788 ± 110 ng·h/mL | 364 ± 46.2 ng/mL | 0.64 ± 0.34 h | 2630 ± 532 ng·h/mL | 503 ± 199 ng/mL | 0.33 h | 5.93 ± 2.67 h | 1280 ± 393 ng·h/mL | 214 ± 55.4 ng/mL | 1.67 ± 0.12 h | 11.6 ± 5.74 h | 87.36% | 93.94% | 92.23% | 94.33% | 98.83% | 91.02% | 98.18% | 89.99% | 91.37% | half-life [1, 3]: 9.29 ± 4.7 h; AUC(0-t) [1, 6]: 486 ± 136 ng·h/mL; Cmax [1, 6]: 147 ± 19.9 ng/mL; Tmax [1, 6]: 0.36 ± 0.16 h; half-life [1, 6]: 0.79 ± 0.39 h |
| C[C@@]12C[C@@]3(O)O[C@@H](O1)[C@]1(COC(=O)c4ccccc4)[C@H]3C[C@@]12O[C@@H]1O[C@H](CO)[C@@H](O)[C@H](O)[C@H]1O [Compound 3, paeoniflorin] |  |  |  | 825 ± 96 ng·h/mL | 82.8 ± 15.7 ng/mL | 0.81 ± 0.34 h | 12.6 ± 7.46 h | 910 ± 476 ng·h/mL | 101 ± 18 ng/mL | 1.33 ± 0.37 h | 7.9 ± 1.17 h | 104.13% | 98.03% | 91.28% | 91.57% | 87.63% | 92.10% | 89.55% | 87.54% | 95.32% | Tmax ([1]; 12 mL/kg): 0.5 ± 0.28 h; AUC(0-t) [1, 10]: 362 ± 40.4 ng·h/mL; Cmax [1, 10]: 74.1 ± 26 ng/mL; Tmax [1, 10]: 0.31 ± 0.07 h; half-life [1, 10]: 16 ± 2.62 h; AUC(0-t) [1, 11]: 659 ± 411 ng·h/mL; Cmax [1, 11]: 150 ± 24.5 ng/mL; half-life [1, 11]: 21.4 ± 8.85 h |
| CC12CC(O)C3CC1(OC1OC(CO)C(O)C(O)C1O)C3(COC(=O)c1ccccc1)C(=O)O2 (stereo not drawn) [Compound 4, albiflorin] |  |  |  | 1110 ± 346 ng·h/mL | 255 ± 98 ng/mL | 0.33 ± 0.18 h | 8.06 ± 1.44 h | 514 ± 271 ng·h/mL | 142 ± 39.8 ng/mL | 0.28 ± 0.14 h | 9.07 ± 0.87 h | 99.91% | 97.15% | 91.22% | 98.33% | 93.49% | 102.34% | 88.48% | 101.5% | 79.13% | AUC(0-t) [1, 10]: 619 ± 130 ng·h/mL; Cmax [1, 10]: 88.5 ± 18.3 ng/mL; Tmax [1, 10]: 0.81 ± 0.62 h; half-life [1, 10]: 7.74 ± 0.74 h; AUC(0-t) [1, 11]: 785 ± 158 ng·h/mL; Cmax [1, 11]: 113 ± 25.8 ng/mL; Tmax [1, 11]: 0.56 ± 0.27 h; half-life [1, 11]: 8.73 ± 0.98 h |
| O=C1C[C@@H](c2ccc(O[C@@H]3O[C@H](CO)[C@@H](O)[C@H](O)[C@H]3O)cc2)Oc2cc(O)ccc21 [Compound 2, liquiritin] | 788 ± 110 ng·h/mL | 200 ± 42.4 ng/mL | 0.32 ± 0.27 h | 794 ± 142 ng·h/mL | 193 ± 84.5 ng/mL | 0.39 ± 0.14 h | 7.04 ± 2.99 h | 421 ± 222 ng·h/mL | 98.9 ± 26.8 ng/mL | 0.17 ± 0.11 h | 6.84 ± 3.11 h | 97.11% | 88.92% | 97.49% | 95.35% |  | 89.99% | 96.71% | 91.03% | 99.99% | half-life [1, 3]: 12.9 ± 4.76 h; AUC(0-t) [1, 6]: 797 ± 174 ng·h/mL; Cmax [1, 6]: 139 ± 33.5 ng/mL; Tmax [1, 6]: 0.5 ± 0.18 h; half-life [1, 6]: 5.26 ± 1.93 h |

— paper PMC6272428 (Molecules, 2015)
